# Test results: patent US4888345A, “4,8-disubstituted-1,2-dihydro and 1,2,3,4-tetrahydroimidazo-[1,5-a] pyrimidines” (American Cyanamid Company, priority 1988, dated 1989)
# Tested on: Spontaneously Hypertensive Rats
# Assay: Hypotensive activity: reduction of mean arterial blood pressure in spontaneously hypertensive rats (method of Chan and Poorvin)
# Assay type: in vivo
# Conditions: gavage, two doses of 100 mg/kg or less 24 hours apart; measured 28 hours after initial dose; average MABP of the rats used 160±1.5 mm Hg
# Protocol: Certain of the novel compounds of the present invention are active hypotensive agents at nontoxic doses when administered to mammals. These compounds were tested for hypotensive activity by the method of P. S. Chan and D. Poorvin, Clinical and Experimental Hypertension, 1(6), 817-830 (1979). Male, 16 week old, spontaneously hypertensive rats of the Okamoto strain having an average mean arterial blood pressure of 160±1.5 mm of mercury are used in the test. One to 3 rats are used per test compound. A rat is dosed by gavage with a test compound, suspended in 2% pre-boiled starch at a concentration of 50 mg/ml, at a dose of 100 mg/kg of body weight or less, with 0.9% sodium chloride loading at a dose of 25 ml/kg of body weight. A second identical dose of the test compound, without sodium chloride loading is given 24 hours later. At 28 hours after the initial dose the mean arterial blood pressure is measured by the method of Chan and Poorvin vide supra. The procedure is repeated in a second and third rat when necessary.
row,SMILES,MABP/mm Hg (mean arterial blood pressure after dosing) [mm Hg]
1,"NC(=O)c1ncn2c1NCC=C2c1cccc(C(F)(F)F)c1 [Example 26, 1,2-Dihydro-4-[3-(trifluoromethyl)phenyl]imidazo-[1,5-a]pyrimidine-8-carboxamide]",111
2,"NC(=O)c1ncn2c1NCC=C2c1cccc(Cl)c1 [Example 27, 4-(3-Chlorophenyl)-1,2-dihydroimidazo[1,5-a]-pyrimidine-8-carboxamide]",132
3,"NC(=O)c1ncn2c1NCC=C2c1ccccc1 [Example 29, 1,2-Dihydro-4-phenylimidazo[1,5-a]-pyrimidine-8-carboxamide]",121
4,"NC(=O)c1ncn2c1NCC=C2c1cccnc1 [Example 37, 1,2-Dihydro-4-(3-pyridinyl)imidazo-[1,5-a]pyrimidine-8-carboxamide]",138
5,"NC(=O)c1ncn2c1NCC=C2c1cc(Cl)ccc1Cl [Example 28, 4-(2,5-Dichlorophenyl)-1,2-dihydroimidazo[1,5-a]-pyrimidine-8-carboxamide]",106
6,"NC(=O)c1ncn2c1NCC=C2c1cccc([N+](=O)[O-])c1 [Example 35, 1,2-Dihydro-4-(3-nitrophenyl)imidazo-[1,5-a]pyrimidine-8-carboxamide]",139

# Tested on: Brain-Specific Receptors of Rats (3H-benzodiazepine binding)
# Assay: Inhibition of the binding of 3H-benzodiazepine to brain-specific receptors of rats (antianxiety)
# Parameters: species or system rat (Wistar strain)
# Conditions: rat cortex P2-synaptosomal fraction; 3H-diazepam (1.5 nM) or 3H-flunitrazepam (1.0 nM); 30 minutes in ice, pH 7.4; test concentration not given
# Source text: The antianxiety properties of certain of the novel compounds of the present invention have been establish in a test which measures the ability of a test compound to inhibit the binding of tritiated benzodiazepines to brain-specific receptors of mammals. A modification of the method described by R. F. Squires, et al., Nature, 266, No. 21, pg 732 (April 1977) and H. Mohler, et al., Science, 198:849 (1977) was employed.
# Male albino rats (Wistar strain, weighing 150 g 200 g each) were used. The test compounds were solubilized in dimethylformamide, acetic acid, ethanol or hydrochloric acid.
# Whole cortex of rats was homogenized gently in 20 volumes of ice-cold 0.32 M sucrose, centrifuged twice at 1000 g for 10 minutes and then recentrifuged at 30,000 g for 20 minutes to produce a crude P2 -synaptosomal fraction. […]
# The binding assay consisted of 300 μl of the P2 -fraction suspension (0.2-0.4 mg protein), 100 μl of test drug and 100 μl of ^3 H-diazepam (1.5 nM, final concentration) or ^3 H-flunitrazepam (1.0 nM, final concentration) which was added to 1.5 ml of 50 mM Tris.HCl (pH 7.4). […] After drying at 50°-60° C. for 30 minutes, 10 ml of diluent was added and the radioactivity determined in a scintillation counter.
# Inhibition of binding was calculated by the difference between total binding and binding in the presence of test compound, divided by the total binding, ×100. […]
row,% Inhibition of 3H-benzodiazepine binding [%],SMILES
1,27,"COc1cccc(C2=CCNc3c(C(N)=O)ncn32)c1 [Example 30, 1,2-Dihydro-4-(3-methoxyphenyl)-imidazo[1,5-a]pyrimidine-8-carboxamide]"
2,29,"NC(=O)c1ncn2c1NCC=C2c1ccc(N2CCOCC2)cc1 [Example 38, 1,2-Dihydro-4-[4-(4-morpholinyl)-phenyl]imidazo[1,5-a]pyrimidine-8-carboxamide]"
